Source: patent US20230219964A1, “ANTIBACTERIAL AND ANTIFUNGAL PLEUROMUTILIN CONJUGATES” (SYDDANSK UNIVERSITET, priority 2020, published 2023)
Values after ≈ are worked out from the molar mass of the structure shown.

How the values were obtained:
[1] = tested on: Multi-resistant Staphylococcus aureus (MRSA) USA300 cells; assay: MIC in vitro broth micro-dilution assay, MRSA USA300; format: cell-based; details: lowest concentration to fully inhibit visible growth (OD600), ATCC strain; for MIC: Staphylococcus aureus, read-out: in vitro susceptibility (MIC) MRSA USA3000
Protocol: (§1) Bacterial susceptibility was established through an in vitro cell-based broth micro-dilution assay. To produce accurate and reproducible MIC-values, a procedure was used which follows the guidelines set by the Clinical and Laboratory Standards Institute (CLSI, USA) and the European Committee on Antimicrobial Susceptibility Testing (EUCAST). The micro-dilutions were carried out in 96-well plates, according to FIG. 3, wherein column 1 is a growth control, Columns 2 to 11 are dilutions of 1×, 2×, 4×, 8×, 16×, 32×, 64×, 128×, 256×, 512× respectively, and column 12 is a sterile control. To further increase the reliability of each susceptibility test, inoculation involved the use of three independent overnight cultures (ON1-ON3) thus giving rise to […]. Furthermore, each ON was added to two individual dilution rows, giving rise to […]. The standard inoculum was set to ˜5-10^5 colony-forming units (CFU) mL^−1. This was verified by dilution onto agar plates after each overall run.
(§2) The applied procedure was:
(§3) 1.1 MH or BHI agar plates for dilutions were created, 1 plate per overnight (ON) culture and MH or BHI media. 1.2 Day 1: Preparation of ON cultures of the bacterial strain in question, by inoculation of a single colony in 5 mL of MH or BHI media. Then incubation at 37° C. with aeration for approximately 16-20 hours. Biological triplicates were created by inoculation from 3 different colonies per strain.
(§4) 1.3 Day 2: A 96-well plate with the antibiotic/compound in question was prepared as according to FIG. 3: 1.4 In a 15 mL falcon tube, an appropriate volume of a 1000 μg/mL antibiotic/compound DMSO stock was diluted with MH or BHI media such that a 2× concentration and total volume of 10 mL was achieved. 1.5 A multi-channel pipette was used in the following. 1.6 Column 1 was used for growth control, so no antibiotic/compound was added to that column. 1.7 200 μl of 2× concentration of the antibiotic/compound was added to column 2. Technical duplicates were always created, thus 2 columns per ON culture. 1.8 100 μl of MH or BHI media was added to columns 1, 3-11 and 200 μl of MH or BHI media to column 12. 1.9 100 μl was transferred from column 2 to column 3. The same pipetting tips were used to transfer 100 μL from column 3 to 4. This scheme was repeated until column 11 where 100 μl was discarded after re-suspending. Column 12 was used as a sterile control, so no antibiotic/compound was added to that column. Each transferring involved pipetting up and down 5 to 7 times. 1.10 The plates were fully dried for CFU in the 42° C. incubator, 4× dilutions in triplicates per one plate.
(§5) 1.11 The optical density of bacterial cells in the ON culture was measured at wavelength 600 nm (OD600). Then the ON culture was diluted to an OD600=0.1. 1.12 Then the OD600 was re-measured to make certain that it was between 0.08 and 0.13. 1.13 The prepared 0.1 culture of 1.12 was diluted 100× more by transferring of 100 μl thereof, to 10 ml of MH or BHI media (enough for a 96-well plate). 1.14 Then 200 μl of the 100× dilution in 1.13 was transferred to Eppendorf tubes and kept cold until use. 1.15 100 μl of culture with an OD600 on approximately 0.001 was dispensed to each well of columns 1 to 11. 1.16 The plate was closed. Covered with aluminium foil and small holes were created with a 100-200 μL tip.
(§6) 1.17 The 96-well plate was then incubated at 37° C. with agitation and left for 16-hours.
(§7) 1.18 Verification of standard inoculum: The 100× diluted culture of 1.13 was used to create 10^−1 to 10^−4 dilutions in PBS/0.9% saline (100 μl sample to 900 μl PBS, mix well and continue until 10^−4). 1.19 10 μl of the 10^−2, 10^−3 and 10^−4 dilutions in 1.18 were spotted onto very dry MH or BHI plates in triplicates. 1.20 Then incubated overnight at 37° C. 1.21 The plates were examined manually or by using the plate reader.

E. faecalis cells = assay: MIC in vitro broth micro-dilution assay, E. faecalis; format: cell-based, Enterococcus faecalis; details: lowest concentration to fully inhibit visible growth (OD600), clinical isolate; for MIC: Enterococcus faecalis, read-out: in vitro susceptibility (MIC) E. Faecalis
Protocol: as §1, §2, §3, §4, §5, §6, §7

[2] = tested on: vancomycin-resistant enterococci (VRE) cells, VRE 1; assay: MIC in vitro broth micro-dilution assay, VRE 1; format: cell-based; details: lowest concentration to fully inhibit visible growth (OD600), clinical isolate, ampicillin, ciprofloxacin and vancomycin resistant; for MIC: Enterococcus, VRE, read-out: in vitro susceptibility (MIC) VRE 1
Protocol: as §1, §2, §3, §4, §5, §6, §7

S. pneumonia cells = assay: MIC in vitro broth micro-dilution assay, S. pneumonia; format: cell-based, Streptococcus pneumonia; details: lowest concentration to fully inhibit visible growth (OD600), clinical isolate; for MIC: Streptococcus pneumoniae, read-out: in vitro susceptibility (MIC) S. Pneumonia
Protocol: as §1, §2, §3, §4, §5, §6, §7

[3] = tested on: vancomycin-resistant enterococci (VRE) cells, VRE 5; assay: MIC in vitro broth micro-dilution assay, VRE 5; format: cell-based; details: lowest concentration to fully inhibit visible growth (OD600), clinical isolate, ampicillin, ciprofloxacin, vancomycin and linezolid resistant; for MIC: Enterococcus, VRE, read-out: in vitro susceptibility (MIC) VRE 5
Protocol: as §1, §2, §3, §4, §5, §6, §7

Row | Compound | in vitro susceptibility (MIC) MRSA USA3000 ([1]; listed as drawing 80) [µg/mL] | MIC (E. faecalis cells) [µg/mL] | MIC [2] [µg/mL] | MIC (S. pneumonia cells) [µg/mL] | MIC [3] [µg/mL] | MIC [1] [µg/mL] | in vitro susceptibility (MIC) MRSA USA3000 [1] [µg/mL] | in vitro susceptibility (MIC) E. Faecalis (E. faecalis cells) [µg/mL] | in vitro susceptibility (MIC) VRE 1 [2] [µg/mL] | in vitro susceptibility (MIC) S. Pneumonia (S. pneumonia cells) [µg/mL] | in vitro susceptibility (MIC) VRE 5 [3] [µg/mL]
1 | C=C[C@]1(C)C[C@@H](OC(=O)Cn2cc(-c3ccc(Cn4cnc5c(N)ncnc54)nc3)nn2)[C@]2(C)[C@H](C)CC[C@]3(CCC(=O)[C@H]32)[C@@H](C)[C@@H]1O [C7, 22-[4-(6-((6-Amino-9H-purin-9-yl)methyl)pyridin-3-yl)-1H-1,2,3-triazol-1-yl]-22-deoxypleuromutilin] | 0.03 | 0.25 (≈ 0.382 µM) | 0.12 (≈ 0.184 µM) | 0.25 (≈ 0.382 µM) | 0.12 (≈ 0.184 µM) | – | – | – | – | – | –
2 | C=C[C@]1(C)C[C@@H](OC(=O)Cn2cc(-c3ccc(Cn4cnc5c(N)ncnc54)c(OC)c3)nn2)[C@]2(C)[C@H](C)CC[C@]3(CCC(=O)[C@H]32)[C@@H](C)[C@@H]1O [C8, 22-[4-(4-((6-Amino-9H-purin-9-yl)methyl)-3-methoxyphenyl)-1H-1,2,3-triazol-1-yl]-22-deoxypleuromutilin] | – | 0.25 (≈ 0.366 µM) | 0.12 (≈ 0.176 µM) | 0.25 (≈ 0.366 µM) | 0.12 (≈ 0.176 µM) | 0.06 (≈ 0.0879 µM) | – | – | – | – | –
3 | C=C[C@]1(C)C[C@@H](OC(=O)Cn2cc(-c3ccc(Cn4cnc5c(N)ncnc54)c(O)c3)nn2)[C@]2(C)[C@H](C)CC[C@]3(CCC(=O)[C@H]32)[C@@H](C)[C@@H]1O [C9, 22-[4-(4-((6-amino-9H-purin-9-yl)methyl)-3-hydroxyphenyl)-1H-1,2,3-triazol-1-yl]-22-deoxypleuromutilin] | – | 0.25 (≈ 0.374 µM) | 0.25 (≈ 0.374 µM) | 0.25 (≈ 0.374 µM) | 0.25 (≈ 0.374 µM) | 0.03 (≈ 0.0449 µM) | – | – | – | – | –
4 | C=C[C@]1(C)C[C@@H](OC(=O)Cn2cc(-c3ccc(Cn4cnc5c(N6CCNCC6)ncnc54)nc3)nn2)[C@]2(C)[C@H](C)CC[C@]3(CCC(=O)[C@H]32)[C@@H](C)[C@@H]1O [C10, 22-[4-(6-((6-(piperazin-1-yl)-9H-purin-9-yl)methyl)pyridin-3-yl)-1H-1,2,3-triazol-1-yl]-22-deoxypleuromutilin] | – | 0.03 (≈ 0.0415 µM) | 0.03 (≈ 0.0415 µM) | 0.03 (≈ 0.0415 µM) | 0.12 (≈ 0.166 µM) | 0.12 to 0.25 (≈ 0.166 to 0.346 µM) | – | – | – | – | –
5 | C=C[C@]1(C)C[C@@H](OC(=O)Cn2cc(-c3ccc(Cn4cnc5c(N6CCNCC6)ncnc54)cc3)nn2)[C@]2(C)[C@H](C)CC[C@]3(CCC(=O)[C@H]32)[C@@H](C)[C@@H]1O [C11, 22-[4-(4-((6-(piperazin-1-yl)-9H-purin-9-yl)methyl)phenyl)-1H-1,2,3-triazol-1-yl]-22-deoxypleuromutilin] | – | 0.12 (≈ 0.166 µM) | 0.06 (≈ 0.0831 µM) | 0.12 (≈ 0.166 µM) | 0.12 (≈ 0.166 µM) | 0.25 (≈ 0.346 µM) | – | – | – | – | –
6 | C=C[C@]1(C)C[C@@H](OC(=O)Cn2cc(-c3ccc([C@@H](C)n4cnc5c(N)ncnc54)cc3)nn2)[C@]2(C)[C@H](C)CC[C@]3(CCC(=O)[C@H]32)[C@@H](C)[C@@H]1O [C12, 22-[4-(4-((R)-1-(6-amino-9H-purin-9-yl)ethyl)phenyl)-1H-1,2,3-triazol-1-yl]-22-deoxypleuromutilin] | – | 0.25 (≈ 0.375 µM) | 0.25 (≈ 0.375 µM) | 0.25 (≈ 0.375 µM) | 0.25 (≈ 0.375 µM) | 0.12 (≈ 0.18 µM) | – | – | – | – | –
7 | C=C[C@]1(C)C[C@@H](OC(=O)Cn2cc(-c3ccc([C@@H](C)n4cnc5c(N6CCNCC6)ncnc54)cc3)nn2)[C@]2(C)[C@H](C)CC[C@]3(CCC(=O)[C@H]32)[C@@H](C)[C@@H]1O [C13, 22-[4-(4-((R)-1-(6-(piperazin-1-yl)-9H-purin-9-yl)ethyl)phenyl)-1H-1,2,3-triazol-1-yl]-22-deoxypleuromutilin] | – | 0.25 (≈ 0.34 µM) | 0.25 (≈ 0.34 µM) | 0.25 (≈ 0.34 µM) | 0.12 to 0.25 (≈ 0.163 to 0.34 µM) | 0.5 (≈ 0.679 µM) | – | – | – | – | –
8 | C=C[C@]1(C)C[C@@H](OC(=O)Cn2cc(-c3cccc(NC(=O)c4ccc(OC)cc4)c3)nn2)[C@]2(C)[C@H](C)CC[C@]3(CCC(=O)[C@H]32)[C@@H](C)[C@@H]1O [C15, 22-[4-(3-(4-methoxybenzamido)phenyl)-1,2,3-triazole-1-yl]-22-deoxypleuromutilin] | – | 0.25 (≈ 0.382 µM) | 0.12 (≈ 0.183 µM) | 0.25 (≈ 0.382 µM) | 0.25 (≈ 0.382 µM) | 0.12 (≈ 0.183 µM) | – | – | – | – | –
9 | C=C[C@]1(C)C[C@@H](OC(=O)Cn2cc(-c3cccc(Nc4ncnc5[nH]cnc45)c3)nn2)[C@]2(C)[C@H](C)CC[C@]3(CCC(=O)[C@H]32)[C@@H](C)[C@@H]1O [C18, 22-[4-(3-((9H-purin-6-yl)amino)phenyl)-1,2,3-triazole-1-yl]-22-deoxypleuromutilin] | – | 0.5 (≈ 0.783 µM) | 0.25 (≈ 0.391 µM) | 0.5 (≈ 0.783 µM) | 0.25 (≈ 0.391 µM) | 0.06 (≈ 0.0939 µM) | – | – | – | – | –
10 | C=C[C@]1(C)C[C@@H](OC(=O)Cn2cc(-c3cc(C#N)ccc3O)nn2)[C@]2(C)[C@H](C)CC[C@]3(CCC(=O)[C@H]32)[C@@H](C)[C@@H]1O [C19, 22-[4-(5-cyano-2-hydroxyphenyl)-1H-1,2,3-triazol-1-yl]-22-deoxypleuromutilin] | – | 2 (≈ 3.66 µM) | 1 (≈ 1.83 µM) | 4 (≈ 7.32 µM) | 1 (≈ 1.83 µM) | 0.25 (≈ 0.457 µM) | – | – | – | – | –
11 | C=C[C@]1(C)C[C@@H](OC(=O)Cn2cc(-c3ccc(Cn4cc(C)c(=O)[nH]c4=O)cc3)nn2)[C@]2(C)[C@H](C)CC[C@]3(CCC(=O)[C@H]32)[C@@H](C)[C@@H]1O [C20, 22-[4-(4-((Thymine-1-yl)methyl)phenyl)-1,2,3-triazol-1-yl]-22-deoxypleuromutilin] | – | 1 (≈ 1.55 µM) | 0.5 (≈ 0.777 µM) | 1 (≈ 1.55 µM) | 0.5 (≈ 0.777 µM) | 0.12 (≈ 0.186 µM) | – | – | – | – | –
12 | Retapamulin [reference compound] | – | – | – | – | – | – | 0.25 | 0.12 | 0.03 | 0.12 | 0.03
13 | Valnemulin [reference compound] | – | – | – | – | – | – | 0.06 | 0.03 | 0.03 | 0.06 to 0.12 | 0.015
